Experimental data: US12281334B2, “Multi donor stem cell compositions and methods of making same” (Children's Hospital Medical Center, priority 2017, dated 2025)
“Also recorded” adds a separate entry of the source.

Columns and labels:
[1] = test system: pooled iPSCs (two fluorescently labeled donors and one puromycin resistant donor); assay: Donor ratio change by drug selection monitored by eDNA (drop out assay); format: cell-based, human; settings: puromycin containing media; fluorescence imaging and eDNA donor identification PCR
Text: FIG. 22. Donor ratio change monitored by gDNA in the culture medium. To confirm the eDNA donor identification, Applicant monitored cell ratio change by drug selection. Two types of fluorescently labeled cells and puromycin resistant cells were used as a positive control.
(§1) In one aspect, a “Drop out assay” is disclosed. In this aspect, genomic DNA in environments (environmental DNA, or “eDNA”), a form of cell-free DNA (cfDNA), exists in the environment to determine biodiversity such as sea and soil. Detection of circulating tumor derived cfDNA is an evolving component of cancer precision medicine. […] Remarkably, when applied into pooled stem cell culture, quantitative detection of respective donor correlates with the cell ratio in culture. Therefore, Applicant concluded eDNA-based noninvasive donor identification method is effective decoding strategy for pooled stem cell culture by eDNA in culture supernatant. PCR of eDNA in culture supernatant can be carried out using donor-specific SNP primers. Each SNP primer may be standardized, and the donor ratio of the iPSC pool can be estimated using eDNA contained in the culture supernatant (see FIG. 19). As a result, the cell ratio may be successfully determined by PCR of eDNA in the medium (see FIG. 20). […] In order to confirm the sensitivity of eDNA donor identification, Applicant monitored cell ratio change by drug selection. […]

[2] = test system: fat-treated hepatocytes prepared from 11 iPSCs pool; assay: Drop-out assay using induced hepatocytes treated with oleic acid and troglitazone; format: cell-based, human; settings: eDNA based drop-out assay; oleic acid treated hepatocyte pool from eleven donors
Method: FIG. 23. Drop-out assay using induced hepatocytes treated with oleic acid and troglitazone. Drug screening assays for fat accumulation and drug treatment were performed using hepatocytes prepared from iPSC pools.
as §1

COc1ccc(C[C@H](N)C(=O)N[C@H]2[C@@H](O)[C@H](n3cnc4c(N(C)C)ncnc43)O[C@@H]2CO)cc1 [puromycin]
fate of non-resistant iPSCs under drug selection [1]: non-resistant iPSCs were disappeared on the second day of treatment; also recorded: two other donors died due to puromycin toxicity

Cc1c(C)c2c(c(C)c1O)CCC(C)(COc1ccc(CC3SC(=O)NC3=O)cc1)O2 (centres unmarked) [troglitazone]
sensitivity to drug induced hepatotoxicity, high fat accumulation risk donor cells vs healthy donor derived cells [2]: significantly more sensitive
